According to PubChem BioAssay (NCI):
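48-hour exposure; five concentrations; linearly interpolated endpoints. GI50 is the concentration that inhibits growth by half. TGI denotes the concentration required for complete inhibition of growth.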

What was measured:
Test in all cases: NCI-60 cell line screen, 48 h
A498 renal = tested on: A498 renal
MOLT-4 leukemia = tested on: MOLT-4 leukemia
SNB-75 CNS = tested on: SNB-75 CNS
NCI-H23 lung = tested on: NCI-H23 lung
K-562 leukemia = tested on: K-562 leukemia
KM12 colon = tested on: KM12 colon
EKVX NSCLC = tested on: EKVX NSCLC
CAKI-1 renal = tested on: CAKI-1 renal
NCI-H522 lung = tested on: NCI-H522 lung
OVCAR-8 ovarian = tested on: OVCAR-8 ovarian
MCF7 breast = tested on: MCF7 breast
BT-549 breast = tested on: BT-549 breast
T-47D breast = tested on: T-47D breast
HOP-62 NSCLC = tested on: HOP-62 NSCLC
NCI-H460 lung = tested on: NCI-H460 lung
NCI-H226 lung = tested on: NCI-H226 lung
UO-31 renal = tested on: UO-31 renal
SK-MEL-28 melanoma = tested on: SK-MEL-28 melanoma
MDA-MB-435 = tested on: MDA-MB-435
LOX IMVI melanoma = tested on: LOX IMVI melanoma
HCT-15 colon = tested on: HCT-15 colon
HS 578T breast = tested on: HS 578T breast
ACHN renal = tested on: ACHN renal
HT29 colon = tested on: HT29 colon
SW-620 colon = tested on: SW-620 colon
COLO 205 colon = tested on: COLO 205 colon
HCC-2998 colon = tested on: HCC-2998 colon
UACC-257 melanoma = tested on: UACC-257 melanoma
TK-10 renal = tested on: TK-10 renal
OVCAR-5 ovarian = tested on: OVCAR-5 ovarian
SK-MEL-5 melanoma = tested on: SK-MEL-5 melanoma
NCI/ADR-RES ovarian = tested on: NCI/ADR-RES ovarian
RPMI-8226 leukemia = tested on: RPMI-8226 leukemia
U251 CNS = tested on: U251 CNS
CCRF-CEM leukemia = tested on: CCRF-CEM leukemia
UACC-62 melanoma = tested on: UACC-62 melanoma
A549 NSCLC = tested on: A549 NSCLC
HL-60(TB) leukemia = tested on: HL-60(TB) leukemia
MALME-3M melanoma = tested on: MALME-3M melanoma
HCT-116 colon = tested on: HCT-116 colon
OVCAR-4 ovarian = tested on: OVCAR-4 ovarian
SF-268 CNS = tested on: SF-268 CNS
PC-3 prostate = tested on: PC-3 prostate
OVCAR-3 ovarian = tested on: OVCAR-3 ovarian
M14 melanoma = tested on: M14 melanoma
RXF 393 renal = tested on: RXF 393 renal
SF-539 CNS = tested on: SF-539 CNS
IGROV1 ovarian = tested on: IGROV1 ovarian
MDA-MB-468 breast = tested on: MDA-MB-468 breast
MDA-MB-231 breast = tested on: MDA-MB-231 breast
SN12C renal = tested on: SN12C renal
786-0 renal = tested on: 786-0 renal
HOP-92 NSCLC = tested on: HOP-92 NSCLC
SNB-19 CNS = tested on: SNB-19 CNS
SK-OV-3 ovarian = tested on: SK-OV-3 ovarian
SR leukemia = tested on: SR leukemia
SK-MEL-2 melanoma = tested on: SK-MEL-2 melanoma
DU-145 prostate = tested on: DU-145 prostate

C/C(=N/O)c1ccc(NC(=O)CSc2nnc(-c3ccc(-c4nc5ccc(Cl)cc5[nH]4)cc3)o2)cc1
GI50 (A498 renal): 1.94 µM | TGI (A498 renal): 4.58 µM | GI50 (MOLT-4 leukemia): 2.62 µM | TGI (MOLT-4 leukemia): 12.4 µM | GI50 (SNB-75 CNS): 1.57 µM | TGI (SNB-75 CNS): 3.41 µM | GI50 (NCI-H23 lung): 1.9 µM | TGI (NCI-H23 lung): 4.09 µM | GI50 (K-562 leukemia): 2.63 µM | TGI (K-562 leukemia): 10.6 µM | GI50 (KM12 colon): 2.66 µM | TGI (KM12 colon): 8.48 µM | GI50 (EKVX NSCLC): 3.05 µM | TGI (EKVX NSCLC): 13.2 µM | GI50 (CAKI-1 renal): 1.85 µM | TGI (CAKI-1 renal): 3.73 µM | GI50 (NCI-H522 lung): 1.57 µM | TGI (NCI-H522 lung): 3.42 µM | GI50 (OVCAR-8 ovarian): 2.94 µM | TGI (OVCAR-8 ovarian): 9.98 µM | GI50 (MCF7 breast): 2.2 µM | TGI (MCF7 breast): 5.93 µM | GI50 (BT-549 breast): 2.39 µM | TGI (BT-549 breast): 4.35 µM | GI50 (T-47D breast): 2.05 µM | TGI (T-47D breast): 4.5 µM | GI50 (HOP-62 NSCLC): 2.01 µM | TGI (HOP-62 NSCLC): 3.95 µM | GI50 (NCI-H460 lung): 1.61 µM | TGI (NCI-H460 lung): 3.25 µM | GI50 (NCI-H226 lung): 1.74 µM | TGI (NCI-H226 lung): 3.68 µM | GI50 (UO-31 renal): 37.2 µM | TGI (UO-31 renal): > 100 µM | GI50 (SK-MEL-28 melanoma): 1.73 µM | TGI (SK-MEL-28 melanoma): 3.18 µM | GI50 (MDA-MB-435): 1.65 µM | TGI (MDA-MB-435): 3.27 µM | GI50 (LOX IMVI melanoma): 1.57 µM | TGI (LOX IMVI melanoma): 2.92 µM | GI50 (HCT-15 colon): 34.5 µM | TGI (HCT-15 colon): > 100 µM | GI50 (HS 578T breast): 2.21 µM | TGI (HS 578T breast): 5.19 µM | GI50 (ACHN renal): 2.7 µM | TGI (ACHN renal): 8.65 µM | GI50 (HT29 colon): 2.44 µM | TGI (HT29 colon): 6 µM | GI50 (SW-620 colon): 2.84 µM | TGI (SW-620 colon): 8.54 µM | GI50 (COLO 205 colon): 3.14 µM | TGI (COLO 205 colon): 12.2 µM | GI50 (HCC-2998 colon): 11.2 µM | TGI (HCC-2998 colon): > 100 µM | GI50 (UACC-257 melanoma): 2.06 µM | TGI (UACC-257 melanoma): 4.5 µM | GI50 (TK-10 renal): 5.78 µM | TGI (TK-10 renal): 17.4 µM | GI50 (OVCAR-5 ovarian): 3.33 µM | TGI (OVCAR-5 ovarian): 13.8 µM | GI50 (SK-MEL-5 melanoma): 1.75 µM | TGI (SK-MEL-5 melanoma): 3.33 µM | GI50 (NCI/ADR-RES ovarian): 84.7 µM | TGI (NCI/ADR-RES ovarian): > 100 µM | GI50 (RPMI-8226 leukemia): 3.16 µM | TGI (RPMI-8226 leukemia): 15 µM | GI50 (U251 CNS): 1.83 µM | TGI (U251 CNS): 3.4 µM | GI50 (CCRF-CEM leukemia): 2.33 µM | TGI (CCRF-CEM leukemia): 6.75 µM | GI50 (UACC-62 melanoma): 1.78 µM | TGI (UACC-62 melanoma): 3.36 µM | GI50 (A549 NSCLC): 1.98 µM | TGI (A549 NSCLC): 4.2 µM | GI50 (HL-60(TB) leukemia): 3.63 µM | TGI (HL-60(TB) leukemia): 17.4 µM | GI50 (MALME-3M melanoma): 1.58 µM | TGI (MALME-3M melanoma): 2.95 µM | GI50 (HCT-116 colon): 2.29 µM | TGI (HCT-116 colon): 5.73 µM | GI50 (OVCAR-4 ovarian): 2.04 µM | TGI (OVCAR-4 ovarian): 4.58 µM | GI50 (SF-268 CNS): 1.83 µM | TGI (SF-268 CNS): 3.78 µM | GI50 (PC-3 prostate): 2.21 µM | TGI (PC-3 prostate): 5.08 µM | GI50 (OVCAR-3 ovarian): 1.74 µM | TGI (OVCAR-3 ovarian): 3.73 µM | GI50 (M14 melanoma): 1.76 µM | TGI (M14 melanoma): 3.54 µM | GI50 (RXF 393 renal): 1.75 µM | TGI (RXF 393 renal): 3.31 µM | GI50 (SF-539 CNS): 1.71 µM | TGI (SF-539 CNS): 3.08 µM | GI50 (IGROV1 ovarian): 3.35 µM | TGI (IGROV1 ovarian): 12 µM | GI50 (MDA-MB-468 breast): 1.81 µM | TGI (MDA-MB-468 breast): 4.09 µM | GI50 (MDA-MB-231 breast): 1.83 µM | TGI (MDA-MB-231 breast): 3.52 µM | GI50 (SN12C renal): 1.87 µM | TGI (SN12C renal): 4.06 µM | GI50 (786-0 renal): 1.91 µM | TGI (786-0 renal): 3.53 µM | GI50 (HOP-92 NSCLC): 1.83 µM | TGI (HOP-92 NSCLC): 3.86 µM | GI50 (SNB-19 CNS): 1.9 µM | TGI (SNB-19 CNS): 3.62 µM | GI50 (SK-OV-3 ovarian): 2.38 µM | TGI (SK-OV-3 ovarian): 5.33 µM | GI50 (SR leukemia): 2.84 µM | TGI (SR leukemia): 15.5 µM | GI50 (SK-MEL-2 melanoma): 1.78 µM | TGI (SK-MEL-2 melanoma): 3.68 µM | GI50 (DU-145 prostate): 2.09 µM | TGI (DU-145 prostate): 4.73 µM
